Reference: paper PMC12091851, “Replacing a Cereblon Ligand by a DDB1 and CUL4 Associated Factor 11 (DCAF11) Recruiter Converts a Selective Histone Deacetylase 6 PROTAC into a Pan‐Degrader” (Chemmedchem, 2025)

Molecular target: T1, HDAC6 (Homo sapiens, UniProt Q9UBN7)
T1 sequence (Q9UBN7 1-1215): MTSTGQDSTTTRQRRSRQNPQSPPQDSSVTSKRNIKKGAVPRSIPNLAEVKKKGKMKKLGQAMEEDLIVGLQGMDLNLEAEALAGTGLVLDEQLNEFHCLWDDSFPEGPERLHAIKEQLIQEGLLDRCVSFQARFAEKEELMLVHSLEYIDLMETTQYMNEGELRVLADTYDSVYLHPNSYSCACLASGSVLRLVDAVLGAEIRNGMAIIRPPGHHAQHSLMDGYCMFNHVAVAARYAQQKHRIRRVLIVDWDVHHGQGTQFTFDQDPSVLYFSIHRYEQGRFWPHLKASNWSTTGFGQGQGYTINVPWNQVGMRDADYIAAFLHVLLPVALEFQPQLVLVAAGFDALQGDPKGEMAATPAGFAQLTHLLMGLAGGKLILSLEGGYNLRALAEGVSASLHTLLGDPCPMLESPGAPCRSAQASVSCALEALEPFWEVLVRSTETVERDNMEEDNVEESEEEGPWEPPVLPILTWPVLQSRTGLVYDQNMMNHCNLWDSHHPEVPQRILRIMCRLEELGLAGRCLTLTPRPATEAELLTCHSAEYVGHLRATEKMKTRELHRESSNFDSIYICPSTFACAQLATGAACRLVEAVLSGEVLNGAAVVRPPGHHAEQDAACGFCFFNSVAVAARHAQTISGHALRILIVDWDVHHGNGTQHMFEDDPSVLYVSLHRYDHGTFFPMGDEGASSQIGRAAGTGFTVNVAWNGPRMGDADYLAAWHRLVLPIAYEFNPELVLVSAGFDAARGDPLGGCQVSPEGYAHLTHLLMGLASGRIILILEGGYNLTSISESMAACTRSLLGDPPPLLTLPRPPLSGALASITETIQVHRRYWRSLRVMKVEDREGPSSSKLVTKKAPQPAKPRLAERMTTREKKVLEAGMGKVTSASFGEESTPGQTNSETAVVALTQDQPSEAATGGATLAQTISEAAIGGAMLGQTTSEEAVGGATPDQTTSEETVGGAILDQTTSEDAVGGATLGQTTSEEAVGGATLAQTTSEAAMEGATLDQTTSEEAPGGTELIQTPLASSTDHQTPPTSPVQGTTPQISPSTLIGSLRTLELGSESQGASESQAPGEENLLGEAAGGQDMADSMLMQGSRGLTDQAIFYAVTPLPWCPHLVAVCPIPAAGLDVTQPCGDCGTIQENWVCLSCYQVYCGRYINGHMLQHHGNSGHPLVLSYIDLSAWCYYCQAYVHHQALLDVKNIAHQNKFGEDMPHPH
Assay: Simple Western immunoassay, HDAC6 levels in MM.1S cell lysates
Assay type: cell-based
Design: endogenous in cells; host or cells: MM.1S
Details: MM.1S cells, 10 μM; for reduction of HDAC6 protein levels: 24 h
Description: Figure 3 Initial degradation screening of HDAC1 and 6 by DCAF11‐recruiting PROTACs by Simple Western™ immunoassay analysis of MM.1S cell lysates. MM.1S cells were treated with the indicated compound (10 μM) or vehicle (DMSO) for 24 h. […] Bottom: Representative images from a total of n=3 biological replicates, labeled with spacer type; w/o: without spacer.
2. Biological Experiments […]
The human multiple myeloma cell line MM.1S (CRL-2974) was obtained from American Type Culture Collection (ATCC, Manassas, VA, USA). The semi-adherent cells were cultivated in RPMI 1640 medium (Catalog#21875-034, Gibco, ThermoFisher Scientific Inc., Waltham, MA, USA) supplemented with 10% FBS (PAN Biotech GmbH; Aidenbach, Germany), 100 IU/mL penicil lin, 0.1 mg/mL streptomycin (PAN Biotech GmbH) and 1 mM sodium pyruvate (ThermoFisher Scientific Inc.). […]
(PAN Biotech GmbH). All cells were cultured at 37 °C in a 5% CO2 atmosphere. Incubation times, as part of assay protocols, were performed under these conditions as well. […]
2.2. Simple Western™ Immunoassay
For the cell lysates, MM.1S (0.5 × 10^6 cells/mL) or U-87MG (0.18 × 10^6 cells/mL) cells were seeded and incubated with the indicated concentration of compound or vehicle (DMSO) for the given time. […]
SDS, 0.5% deoxycholate; Catalog# FNN0011, Thermo Fisher Scientific Inc., Waltham, MA, USA) with addition of Halt Protease Inhibitor Cocktail (100×) (Catalog# 78429, Life Technologies GmbH, Carlsbad, CA, USA) and phenylmethanesulfonyl fluoride (Catalog# 10837091001, Sigma-Aldrich, St.
Louis, MO, USA) according to manufacturer´s instructions. Protein content was determined by Pierce™ BCA Protein Assay Kit (Catalog# 23225, Thermo Fisher Scientific Inc.) according to manufacturer´s guidelines. […]
Fluorescence Separation 8x25 Capillary Cartridges (Catalog# SM-FL004-1, Protein Simple, Bio-Techne, Minneapolis, MN, USA) were used for separation and the Anti-Mouse Detection Module (Catalog# DM-002, Protein Simple) was used for detection with addition of 20x Anti-Rabbit HRP […]
Conjugate (Catalog# 043-426, Protein Simple) according to manufacturer´s instructions. […] Evaluation and quantification was performed with the compass software (6.2.0, Protein Simple). […]
For the cell viability assay the automated pipetting robot system ASSIST PLUS (Model# 4505, Integra Biosciences, Bibertal, Germany) was used. […] The toxicity of compounds was determined after 72 h using the CellTiter-Glo 2.0 Cell Viability Assay (Promega, Madison, WI, USA, #G9242) according to the manufacturer´s protocol. Subsequently, the luminescence was measured using a Tecan Spark (Tecan Group AG, Maennedorf, Swiss) and the half maximal effective concentration (EC50) was determined by plotting dose response curves and nonlinear regression with GraphPad Prism (GraphPad Software, San […]

Structure (SMILES) | effect on HDAC6 protein levels (14 h) | reduction of HDAC6 protein levels | time dependent degradation of HDAC6 (after 6 h)
O=CN(CCCCCCCCCCCC(=O)Nc1ccc(C(=O)NCCCCCCC(=O)NO)cc1)C(C(=O)NCc1ccccc1)c1ccc(Cl)c(Cl)c1 (stereo not shown) [Compound 1j-nc] | not able to affect the protein levels of HDAC1 and 6 | – | –
O=C(CCCCCCNC(=O)c1ccc(NC(=O)CCCCCCCCCCCN(C(=O)CCl)C(C(=O)NCc2ccccc2)c2ccc(Cl)c(Cl)c2)cc1)NO (stereo not shown) [Compound 1j] | – | significant reduction of HDAC6 protein levels | significant degradation
O=C(CCCCCCNC(=O)c1ccc(N(C(=O)CCl)C(C(=O)NCc2ccccc2)c2ccc(Cl)c(Cl)c2)cc1)NO (stereo not shown) [Compound 2] | – | significant reduction of HDAC6 protein levels | –
